Laboratory results published in patent US9133158B2, “Bicyclic dihydroisoquinoline-1-one derivatives” (Hoffmann-La Roche Inc., priority 2011, dated 2015).

How the values were obtained:
[1] = target: T1, human CYP11B2 (Homo sapiens, UniProt P19099); test: G-402 cellular enzyme assay, human CYP11B2 (aldosterone release, HTRF); format: cell-based; conditions: G-402 cells, 1 μM Deoxycorticosterone
T1 construct: expressed in transfected cells
T1 sequence (P19099 25-503): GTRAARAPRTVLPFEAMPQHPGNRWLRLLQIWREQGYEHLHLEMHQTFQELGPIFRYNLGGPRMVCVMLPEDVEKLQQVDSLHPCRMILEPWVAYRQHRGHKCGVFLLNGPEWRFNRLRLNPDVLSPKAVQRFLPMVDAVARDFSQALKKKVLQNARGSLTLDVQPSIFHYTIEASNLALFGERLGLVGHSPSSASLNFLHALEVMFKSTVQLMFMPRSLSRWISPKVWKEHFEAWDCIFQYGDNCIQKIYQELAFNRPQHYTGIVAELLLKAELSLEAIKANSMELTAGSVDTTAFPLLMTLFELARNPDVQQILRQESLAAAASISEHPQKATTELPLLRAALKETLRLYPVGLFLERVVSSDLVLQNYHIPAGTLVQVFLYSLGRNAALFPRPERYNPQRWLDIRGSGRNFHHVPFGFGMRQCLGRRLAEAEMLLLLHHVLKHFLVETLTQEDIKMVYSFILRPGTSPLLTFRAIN
Outline: (§1)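 G-402 cells stably expressing human CYP11B1 or CYP11B2 incubated 16 h in DMEM/F12 with 2.5% charcoal-treated FCS, compound, and 1 μM 11-deoxycortisol (B1) or 1 μM deoxycorticosterone (B2). Cortisol (B1) or aldosterone (B2) in supernatant measured by HTRF; EC50 from 4-parameter MMF fit.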

[2] = target: T2, human CYP11B1 (Homo sapiens, UniProt P15538); test: G-402 cellular enzyme assay, human CYP11B1 (cortisol release, HTRF); format: cell-based; conditions: G-402 cells, 1 μM Deoxycortisol
T2 construct: expressed in transfected cells
T2 sequence (P15538 25-503): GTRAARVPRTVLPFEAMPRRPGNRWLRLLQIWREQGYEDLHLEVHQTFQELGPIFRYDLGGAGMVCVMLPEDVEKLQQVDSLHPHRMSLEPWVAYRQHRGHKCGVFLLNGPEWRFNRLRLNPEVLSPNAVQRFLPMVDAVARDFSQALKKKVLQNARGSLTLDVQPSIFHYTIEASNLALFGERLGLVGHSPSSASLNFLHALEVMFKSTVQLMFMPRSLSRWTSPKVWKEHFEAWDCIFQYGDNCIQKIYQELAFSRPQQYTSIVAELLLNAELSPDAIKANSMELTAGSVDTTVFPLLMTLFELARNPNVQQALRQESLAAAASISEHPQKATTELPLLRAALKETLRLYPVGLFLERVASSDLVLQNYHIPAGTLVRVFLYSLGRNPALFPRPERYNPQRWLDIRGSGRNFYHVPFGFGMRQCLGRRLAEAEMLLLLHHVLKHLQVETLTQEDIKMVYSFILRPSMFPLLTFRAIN
Outline: as §1

| SMILES | EC50 [1] [nM] | EC50 [2] [nM] |
| --- | --- | --- |
| CCC1c2cc(Cl)ccc2C(=O)N1c1cncc(-c2ccnn2C)c1 (single isomer, unassigned) [Example 429, (S or R)-5-Chloro-3-ethyl-2-[5-(2-methyl-2H-pyrazol-3-yl)-pyridin-3-yl]-2,3-dihydro-isoindol-1-one] | 4.3 | 57.7 |
| CSc1cncc(N2CCc3cc(Cl)ccc3C2=O)c1 [Example 59, 6-Chloro-2-(5-methylsulfanyl-pyridin-3-yl)-3,4-dihydro-2H-isoquinolin-1-one] | 8.1 | 135 |
| CCC1c2cc(Cl)ccc2C(=O)N1c1cncc(CNS(=O)(=O)CC)c1 (single isomer, unassigned) [Example 390, Ethanesulfonic acid [5-((S or R)-5-chloro-3-ethyl-1-oxo-1,3-dihydro-isoindol-2-yl)-pyridin-3-ylmethyl]-amide] | 316 | 5470 |
| O=C1c2ccc(Cl)cc2CCN1c1cncc(CN2CCOCC2)c1 [Example 154, 6-Chloro-2-(5-morpholin-4-ylmethyl-pyridin-3-yl)-3,4-dihydro-2H-isoquinolin-1-one] | 74.7 | 193 |
| O=C1c2ccc(Cl)cc2CCN1c1cncc(CN2CCC3(COC3)C2)c1 [Example 170, 6-Chloro-2-[5-(2-oxa-6-aza-spiro[3.4]oct-6-ylmethyl)-pyridin-3-yl]-3,4-dihydro-2H-isoquinolin-1-one] | 3.5 | 14.6 |
| CC(=O)N1CCC(Oc2cncc(N3C(=O)c4ccc(Cl)cc4C3(C)C)c2)C1 (stereo not shown) [Example 441, 2-[5-(1-Acetyl-pyrrolidin-3-yloxy)-pyridin-3-yl]-5-chloro-3,3-dimethyl-2,3-dihydro-isoindol-1-one] | 16.6 | 988 |
| O=C1c2ccc(Cl)cc2CCN1c1cncc(CN2CCCCS2(=O)=O)c1 [Example 81, 6-Chloro-2-[5-(1,1-dioxo-1λ^6-[1,2]thiazinan-2-ylmethyl)-pyridin-3-yl]-3,4-dihydro-2H-isoquinolin-1-one] | 178 | 2360 |
| O=C1c2ccc(Cl)cc2C2(CC2)N1c1cncc(CNc2cc[nH]n2)c1 [Example 386, 6′-Chloro-2′-{5-[(1H-pyrazol-3-ylamino)methyl]pyridin-3-yl}spiro [cyclopropane-1,1′-isoindol]-3′(2′H)-one] | 6 | 418 |
| O=C1c2ccc(Cl)cc2CCN1c1cncc(CNc2cccc(F)c2)c1 [Example 259, 6-Chloro-2-{5-[(3-fluoro-phenylamino)-methyl]-pyridin-3-yl}-3,4-dihydro-2H-isoquinolin-1-one] | 12.2 | 73.8 |
| CC(=O)N1CCC(c2cncc(N3C(=O)c4ccc(Cl)cc4C3(C)C)c2)CC1 [Example 461, 2-(1′-Acetyl-1′,2′,3′,4′,5′,6′-hexahydro-[3,4′]bipyridinyl-5-yl)-5-chloro-3,3-dimethyl-2,3-dihydro-isoindol-1-one] | 4 | 361 |
| CC(C)c1nccn1Cc1cncc(N2Cc3cc(Cl)ccc3C2=O)c1 [Example 109, 5-Chloro-2-[5-(2-isopropyl-imidazol-1-ylmethyl)-pyridin-3-yl]-2,3-dihydro-isoindol-1-one] | 229 | 1350 |
| COC(c1cncc(N2CCc3cc(Cl)ccc3C2=O)c1)C1CC1 (stereo not shown) [Example 21, 6-Chloro-2-[5-(cyclopropyl-methoxy-methyl)-pyridin-3-yl]-3,4-dihydro-2H-isoquinolin-1-one] | 41.5 | 263 |
| CC1(C)c2cc(Cl)ccc2C(=O)N1c1cncc(OC2CN(S(C)(=O)=O)C2)c1 [Example 452, 5-Chloro-2-[5-(1-methanesulfonyl-azetidin-3-yloxy)-pyridin-3-yl]-3,3-dimethyl-2,3-dihydro-isoindol-1-one] | 26.8 | 1740 |
| CC1(C)c2cc(Cl)ccc2C(=O)N1c1cncc(CN2CCCS2(=O)=O)c1 [Example 409, 5-Chloro-2-[5-(1,1-dioxo-1λ6-isothiazolidin-2-ylmethyl)-pyridin-3-yl]-3,3-dimethyl-2,3-dihydro-isoindol-1-one] | 6.9 | 429 |
| COc1cncc(N2C(=O)c3ccc(Cl)cc3C2C)c1 (stereo not shown) [Example 120, 5-Chloro-2-(5-methoxy-pyridin-3-yl)-3-methyl-2,3-dihydro-isoindol-1-one] | 24.7 | 207 |
| CCS(=O)(=O)Nc1cccc2c(N3CCc4cc(Cl)ccc4C3=O)cncc12 [Example 289, Ethanesulfonic acid (6-chloro-1-oxo-3,4-dihydro-1H-[2,4′]biisoquinolinyl-8′-yl)-amide] | 70.6 | 186 |
| COc1ccc2c(n1)C(C)(C)N(c1cncc(F)c1)C2=O [Example 294, 6-(5-Fluoro-pyridin-3-yl)-2-methoxy-7,7-dimethyl-6,7-dihydro-pyrrolo[3,4-b] pyridin-5-one] | 204 | 9850 |
| O=C1c2ccc(Cl)cc2CCN1c1cncc(CN2CCCC(O)C2)c1 (stereo not shown) [Example 144, 6-Chloro-2-[5-(3-hydroxy-piperidin-1-ylmethyl)-pyridin-3-yl]-3,4-dihydro-2H-isoquinolin-1-one] | 23.7 | 140 |
| CCC(=O)NC1CCCc2c1cncc2N1C(=O)c2ccc(Cl)cc2C1(C)C (racemic) [Example 468, N-[4-(6-Chloro-1,1-dimethyl-3-oxo-1,3-dihydro-isoindol-2-yl)-5,6,7,8-tetrahydro-isoquinolin-8-yl]-propionamide] | 52.8 | 2660 |
| O=C(Cc1cncc(N2CCc3cc(Cl)ccc3C2=O)c1)N1CCOCC1 [Example 263, 6-Chloro-2-[5-(2-morpholin-4-yl-2-oxo-ethyl)-pyridin-3-yl]-3,4-dihydro-2H-isoquinolin-1-one] | 491 | 4930 |
| CCC(=O)N[C@H]1CCc2c1cncc2N1C(=O)c2ccc(Cl)cc2[C@@H]1C (single isomer, unassigned) [Example 378, N-[(S or R)-4-((S or R)-5-Chloro-3-methyl-1-oxo-1,3-dihydro-isoindol-2-yl)-6,7-dihydro-5H-[2]pyrindin-7-yl]-propionamide] | 212 | 14600 |
| O=c1c2ccc(Cl)cc2ccn1-c1cccnc1 [Example 53, 6-Chloro-2-pyridin-3-yl-2H-isoquinolin-1-one] | 120 | 10800 |
| O=C1c2ccc(Cl)cc2CCN1c1cncc(NCC(F)(F)F)c1 [Example 223, 6-Chloro-2-[5-(2,2,2-trifluoro-ethylamino)-pyridin-3-yl]-3,4-dihydro-2H-isoquinolin-1-one] | 116 | 1420 |
| CCC1c2cc(Cl)ccc2C(=O)N1c1cncc(OC)c1 (stereo not shown) [Example 127, 5-Chloro-3-ethyl-2-(5-methoxy-pyridin-3-yl)-2,3-dihydro-isoindol-1-one] | 54.5 | 266 |
| O=C1c2ccc(Cl)cc2CCN1c1cncc(C(O)c2cc(F)cc(F)c2)c1 (stereo not shown) [Example 32, 6-Chloro-2-{5-[(3,5-difluoro-phenyl)-hydroxy-methyl]-pyridin-3-yl}-3,4-dihydro-2H-isoquinolin-1-one] | 46.8 | 514 |
| CC(O)(c1cncc(N2CCc3cc(Cl)ccc3C2=O)c1)c1ccc(F)c(F)c1 (stereo not shown) [Example 36, 6-Chloro-2-{5-[1-(3,4-difluoro-phenyl)-1-hydroxy-ethyl]-pyridin-3-yl}-3,4-dihydro-2H-isoquinolin-1-one] | 14 | 188 |
| O=C1c2ccc(Cl)cc2CCN1c1cncc(NCc2ccc(F)cc2)c1 [Example 222, 6-Chloro-2-[5-(4-fluoro-benzylamino)-pyridin-3-yl]-3,4-dihydro-2H-isoquinolin-1-one] | 80.3 | 343 |
| CCS(=O)(=O)NCc1cncc(N2Cc3cc(Cl)ccc3C2=O)c1 [Example 115, Ethanesulfonic acid [5-(5-chloro-1-oxo-1,3-dihydro-isoindol-2-yl)-pyridin-3-ylmethyl]-amide] | 682 | 13500 |
| CC1Cc2cccc(Cl)c2C(=O)N1c1cccnc1 (stereo not shown) [Example 93, 8-Chloro-3-methyl-2-pyridin-3-yl-3,4-dihydro-2H-isoquinolin-1-one] | 775 | 14000 |
